{"source": "paper PMC10266688", "about": "(PLOS ONE, 2023)", "experiment": "Single administration dose escalation study (MTD, body weight, clinical observations), female CD1 mice", "type": "in vivo", "details": "for Body weight change, Mean / Body weight change: day 7 vs initial weight; for Body weight change, Mean: group mean", "note": "Several values for one entry are separate records, joined by “and”; a condition that tells them apart may be missing. Equal entries are not always repeated.", "experimental": "Mice were dosed on day 1 and clinical condition recorded at 0.5 h, 2 h, 4 h, 6 h, and days 1–7 (S6 Table).\nGc - general condition observation\nX - treatment with compound or vehicle"}
{"smiles": "N#Cc1ccc(/C=C2/C(=O)/C(=C/c3ccc(C#N)cc3)C23CCNCC3)cc1", "note": "[Up284]", "values": [{"measurement": "Body weight, Mean", "setting": "IP 40 mg/kg single dose, day 0, group mean", "result": 24.20, "unit": "g"}, {"measurement": "Body weight", "setting": "IP 40 mg/kg single dose, day 0, individual mice, 40 mg/kg", "result": "25.6 g and 24.3 g and 22.7 g"}, {"measurement": "Body weight, Mean", "setting": "IP 40 mg/kg single dose, day 1, group mean", "result": 22.83, "unit": "g"}, {"measurement": "Body weight", "setting": "IP 40 mg/kg single dose, day 1, individual mice, 40 mg/kg", "result": "23.9 g and 22.7 g and 21.9 g"}, {"measurement": "Body weight, Mean", "setting": "IP 40 mg/kg single dose, day 2, group mean", "result": 22.97, "unit": "g"}, {"measurement": "Body weight", "setting": "IP 40 mg/kg single dose, day 2, individual mice, 40 mg/kg", "result": "23.3 g and 22.3 g"}, {"measurement": "Body weight, Mean", "setting": "IP 40 mg/kg single dose, day 3, group mean", "result": 23.80, "unit": "g"}, {"measurement": "Body weight", "setting": "IP 40 mg/kg single dose, day 3, individual mice, 40 mg/kg", "result": "24.2 g and 24.5 g and 22.7 g"}, {"measurement": "Body weight, Mean", "setting": "IP 40 mg/kg single dose, day 4, group mean", "result": 23.87, "unit": "g"}, {"measurement": "Body weight", "setting": "IP 40 mg/kg single dose, day 4, individual mice, 40 mg/kg", "result": "24.5 g and 24.6 g and 22.5 g"}, {"measurement": "Body weight, Mean", "setting": "IP 40 mg/kg single dose, day 5, group mean", "result": 24.43, "unit": "g"}, {"measurement": "Body weight", "setting": "IP 40 mg/kg single dose, day 5, individual mice, 40 mg/kg", "result": "25.0 g and 25.1 g and 23.2 g"}, {"measurement": "Body weight, Mean", "setting": "IP 40 mg/kg single dose, day 6, group mean", "result": 24.13, "unit": "g"}, {"measurement": "Body weight", "setting": "IP 40 mg/kg single dose, day 6, individual mice, 40 mg/kg", "result": "25.3 g and 24.6 g and 22.5 g"}, {"measurement": "Body weight, Mean", "setting": "IP 40 mg/kg single dose, day 7, group mean", "result": 24.83, "unit": "g"}, {"measurement": "Body weight", "setting": "IP 40 mg/kg single dose, day 7, individual mice, 40 mg/kg", "result": "26.2 g and 24.5 g and 23.8 g"}, {"measurement": "Body weight change, Mean", "setting": "IP 40 mg/kg single dose", "result": 2.67, "unit": "%"}, {"measurement": "Body weight change", "setting": "IP 40 mg/kg single dose, individual mice, 40 mg/kg", "result": "2.34% and 0.82% and 4.85%"}, {"measurement": "Clinical observation", "setting": "IP 40 mg/kg, day 0, 0.5 h, individual mice", "result": "DPEh"}, {"measurement": "Clinical observation", "setting": "IP 40 mg/kg, day 0, 2 h, individual mice", "result": "HDPEh"}, {"measurement": "Clinical observation", "setting": "IP 40 mg/kg, day 0, 4 h, individual mice", "result": "HDPEh"}, {"measurement": "Clinical observation", "setting": "IP 40 mg/kg, day 0, 6 h, individual mice", "result": "DPEh"}, {"measurement": "Clinical observation", "setting": "IP 40 mg/kg, day 0, time 0, individual mice", "result": 0}, {"measurement": "Clinical observation", "setting": "IP 40 mg/kg, day 1, individual mice, 40 mg/kg", "result": 0}, {"measurement": "Clinical observation", "setting": "IP 40 mg/kg, day 2, individual mice", "result": 0}, {"measurement": "Clinical observation", "setting": "IP 40 mg/kg, day 3, individual mice", "result": 0}, {"measurement": "Clinical observation", "setting": "IP 40 mg/kg, day 4, individual mice", "result": 0}, {"measurement": "Clinical observation", "setting": "IP 40 mg/kg, day 5, individual mice", "result": 0}, {"measurement": "Clinical observation", "setting": "IP 40 mg/kg, day 6, individual mice", "result": 0}, {"measurement": "Clinical observation", "setting": "IP 40 mg/kg, day 7, individual mice", "result": 0}, {"measurement": "Body weight, Mean", "setting": "IP 60 mg/kg single dose, day 0, group mean", "result": 24.00, "unit": "g"}, {"measurement": "Body weight", "setting": "IP 60 mg/kg single dose, day 0, individual mice, 60 mg/kg", "result": "24.4 g and 25.1 g and 22.5 g"}, {"measurement": "Body weight", "setting": "IP 60 mg/kg single dose, day 1, individual mice", "result": "died"}, {"measurement": "Body weight change, Mean", "setting": "IP 60 mg/kg single dose", "result": -100.00, "unit": "%"}, {"measurement": "Clinical observation", "setting": "IP 60 mg/kg, day 0, 0.5 h, individual mice", "result": "DPEh"}, {"measurement": "Clinical observation", "setting": "IP 60 mg/kg, day 0, 2 h, individual mice", "result": "HDPEh"}, {"measurement": "Clinical observation", "setting": "IP 60 mg/kg, day 0, 4 h, individual mice", "result": "HDPEh"}, {"measurement": "Clinical observation", "setting": "IP 60 mg/kg, day 0, 6 h, individual mice", "result": "DPEh"}, {"measurement": "Clinical observation", "setting": "IP 60 mg/kg, day 0, time 0, individual mice", "result": 0}, {"measurement": "Clinical observation", "setting": "IP 60 mg/kg, day 1, individual mice", "result": "died"}, {"measurement": "Body weight, Mean", "setting": "IV 40 mg/kg single dose, day 0, group mean", "result": 24.50, "unit": "g"}, {"measurement": "Body weight", "setting": "IV 40 mg/kg single dose, day 0, individual mice, 40 mg/kg", "result": "26.2 g and 23.2 g and 24.1 g"}, {"measurement": "Body weight, Mean", "setting": "IV 40 mg/kg single dose, day 1, group mean", "result": 23.90, "unit": "g"}, {"measurement": "Body weight", "setting": "IV 40 mg/kg single dose, day 1, individual mice, 40 mg/kg", "result": "25.5 g and 22.6 g and 23.6 g"}, {"measurement": "Body weight, Mean", "setting": "IV 40 mg/kg single dose, day 2, group mean", "result": 24.07, "unit": "g"}, {"measurement": "Body weight", "setting": "IV 40 mg/kg single dose, day 2, individual mice, 40 mg/kg", "result": "25.7 g and 22.4 g and 24.1 g"}, {"measurement": "Body weight, Mean", "setting": "IV 40 mg/kg single dose, day 3, group mean", "result": 25.03, "unit": "g"}, {"measurement": "Body weight", "setting": "IV 40 mg/kg single dose, day 3, individual mice, 40 mg/kg", "result": "26.5 g and 23.6 g and 25.0 g"}, {"measurement": "Body weight, Mean", "setting": "IV 40 mg/kg single dose, day 4, group mean", "result": 25.23, "unit": "g"}, {"measurement": "Body weight", "setting": "IV 40 mg/kg single dose, day 4, individual mice, 40 mg/kg", "result": "27.7 g and 22.9 g and 25.1 g"}, {"measurement": "Body weight, Mean", "setting": "IV 40 mg/kg single dose, day 5, group mean", "result": 25.17, "unit": "g"}, {"measurement": "Body weight", "setting": "IV 40 mg/kg single dose, day 5, individual mice, 40 mg/kg", "result": "28.0 g and 23.0 g and 24.5 g"}, {"measurement": "Body weight, Mean", "setting": "IV 40 mg/kg single dose, day 6, group mean", "result": 24.97, "unit": "g"}, {"measurement": "Body weight", "setting": "IV 40 mg/kg single dose, day 6, individual mice, 40 mg/kg", "result": "27.2 g and 22.6 g and 25.1 g"}, {"measurement": "Body weight, Mean", "setting": "IV 40 mg/kg single dose, day 7, group mean", "result": 25.07, "unit": "g"}, {"measurement": "Body weight", "setting": "IV 40 mg/kg single dose, day 7, individual mice, 40 mg/kg", "result": "27.2 g and 23.2 g and 24.8 g"}, {"measurement": "Body weight change, Mean", "setting": "IV 40 mg/kg single dose", "result": 2.24, "unit": "%"}, {"measurement": "Body weight change", "setting": "IV 40 mg/kg single dose, individual mice, 40 mg/kg", "result": "3.82% and 0.00% and 2.90%"}, {"measurement": "Clinical observation", "setting": "IV 40 mg/kg, day 0, 2 h, individual mice", "result": 0}, {"measurement": "Clinical observation", "setting": "IV 40 mg/kg, day 0, 4 h, individual mice", "result": 0}, {"measurement": "Clinical observation", "setting": "IV 40 mg/kg, day 0, 6 h, individual mice", "result": 0}, {"measurement": "Clinical observation", "setting": "IV 40 mg/kg, day 0, time 0, individual mice", "result": 0}, {"measurement": "Clinical observation", "setting": "IV 40 mg/kg, day 1, individual mice", "result": 0}, {"measurement": "Clinical observation", "setting": "IV 40 mg/kg, day 2, individual mice", "result": 0}, {"measurement": "Clinical observation", "setting": "IV 40 mg/kg, day 3, individual mice", "result": 0}, {"measurement": "Clinical observation", "setting": "IV 40 mg/kg, day 4, individual mice", "result": 0}, {"measurement": "Clinical observation", "setting": "IV 40 mg/kg, day 5, individual mice", "result": 0}, {"measurement": "Clinical observation", "setting": "IV 40 mg/kg, day 6, individual mice", "result": 0}, {"measurement": "Clinical observation", "setting": "IV 40 mg/kg, day 7, individual mice", "result": 0}, {"measurement": "Body weight, Mean", "setting": "IV 60 mg/kg single dose, day 0, group mean", "result": 24.43, "unit": "g"}, {"measurement": "Body weight", "setting": "IV 60 mg/kg single dose, day 0, individual mice, 60 mg/kg", "result": "26.0 g and 22.7 g and 24.6 g"}, {"measurement": "Body weight, Mean", "setting": "IV 60 mg/kg single dose, day 1, group mean", "result": 24.47, "unit": "g"}, {"measurement": "Body weight", "setting": "IV 60 mg/kg single dose, day 1, individual mice, 60 mg/kg", "result": "26.7 g and 22.6 g and 24.1 g"}, {"measurement": "Body weight, Mean", "setting": "IV 60 mg/kg single dose, day 2, group mean", "result": 24.77, "unit": "g"}, {"measurement": "Body weight", "setting": "IV 60 mg/kg single dose, day 2, individual mice, 60 mg/kg", "result": "27.1 g and 23.4 g and 23.8 g"}, {"measurement": "Body weight, Mean", "setting": "IV 60 mg/kg single dose, day 3, group mean", "result": 24.73, "unit": "g"}, {"measurement": "Body weight", "setting": "IV 60 mg/kg single dose, day 3, individual mice, 60 mg/kg", "result": "26.5 g and 23.7 g and 24.0 g"}]}
